Assay results reported in US20230059487A1, “PHOTOSENSITIVE MATERIAL, TRANSFER FILM, MANUFACTURING METHOD OF CIRCUIT WIRING, MANUFACTURING METHOD OF TOUCH PANEL, AND PATTERN FORMING METHOD” (FUJIFILM Corporation, priority 2020, published 2023).
Read-outs that look alike come from different tables or passages of the source.

What was measured:
[1] = Measurement of molar absorption coefficients ε365, ε313 and ε365/ε313 in acetonitrile; type: physicochemical
Source text: (Measurement and Evaluation of ε365 and ε365/ε313)
The ε365 and ε313 of the compound β are molar absorption coefficients measured by dissolving the compound β in acetonitrile. In a case where the compound β was insoluble in acetonitrile, a solvent for dissolving the compound β may be appropriately changed.

[2] = Measurement of pKa of compound β in ground state (acid titration); type: physicochemical
Source text: (Measurement of pKa of Compound β in Ground State)

[3] = molar absorption coefficient at 365 nm in acetonitrile

Cc1c2ccccc2nc2ccccc12 [Example 9-Methylacridine, 9-Methylacridine]
ε365 of Compound β [1, 3]: 6300 (cm mol/L)^−1

Cc1nccc2ccccc12 [Example B6, 1-Me-isoquinoline]
ε365 of Compound β [1, 3]: <10 (cm mol/L)^−1

c1ccc2cnccc2c1 [Example B1, isoquinoline]
pKa of Compound β in ground state [2]: 4.69
pKa of Compound β in ground state ([2]; compound β alone): 4.69
pKa of Compound β in ground state ([2]; compound β alone, ground state): 4.69
pKa of Compound β in ground state ([2]; compound β in ground state): 4.69
pKa of Compound β in ground state ([2]; compound β, ground state): 4.69
pKa of Compound β in ground state ([2]; ground state): 4.69
ε365 of Compound β [1, 3]: <10 (cm mol/L)^−1

Cc1cc(C)c2ccccc2n1 [Example B12, 2,4-dimethylquinoline]
ε365 of Compound β ([1]; molar absorption coefficient at 365 nm in acetonitrile, listed as 2,4-Dimethylquinoline): <10 (cm mol/L)^−1

COc1cc(C)nc2ccccc12 [Example 2-Methyl-4-methoxyquinoline, 2-Methyl-4-methoxyquinoline]
ε365 of Compound β [1, 3]: <10 (cm mol/L)^−1

c1ccc2nc3ccccc3cc2c1 [Example B3, acridine]
pKa of Compound β in ground state [2]: 4.67
pKa of Compound β in ground state ([2]; compound β alone): 4.67
pKa of Compound β in ground state ([2]; compound β alone, ground state): 4.67
pKa of Compound β in ground state ([2]; compound β in ground state): 4.67
pKa of Compound β in ground state ([2]; compound β, ground state): 4.67
pKa of Compound β in ground state ([2]; ground state): 4.67
ε365 of Compound β [1, 3]: 4900 (cm mol/L)^−1

c1ccc(-c2c3ccccc3nc3ccccc23)cc1 [Example 9-Phenylacridine, 9-Phenylacridine]
ε365 of Compound β [1]: >10000
ε365 of Compound β ([1]; molar absorption coefficient at 365 nm): >10000
ε365 of Compound β [1, 3]: >10000 (cm mol/L)^−1

Cc1cc(C)c2ccccc2n1 [2,4-Dimethylquinolme]
ε365 of Compound β [1, 3]: <10 (cm mol/L)^−1

c1ccc2ncccc2c1 [Example B2, quinoline]
pKa of Compound β in ground state [2]: 4.15
pKa of Compound β in ground state ([2]; compound β alone): 4.15
pKa of Compound β in ground state ([2]; compound β alone, ground state): 4.15
pKa of Compound β in ground state ([2]; compound β in ground state): 4.15
pKa of Compound β in ground state ([2]; compound β, ground state): 4.15
pKa of Compound β in ground state ([2]; ground state): 4.15
ε365 of Compound β [1, 3]: <10 (cm mol/L)^−1

CCCCc1ncc(C)c2ccccc12 [Example 1-n-Butyl-4-methylisoquinoline, 1-n-Butyl-4-methylisoquinoline]
ε365 of Compound β [1, 3]: <10 (cm mol/L)^−1

Clc1ccccn1 [Example 2-Chloropyridine, 2-Chloropyridine]
ε365 of Compound β [1, 3]: <10 (cm mol/L)^−1

Nc1ccncc1 [Example 4-Aminopyridine, 4-Aminopyridine]
ε365 of Compound β [1, 3]: <100 (cm mol/L)^−1

CCCCc1nccc2ccccc12 [Example 1-n-Butylisoquinoline, 1-n-Butylisoquinoline]
ε365 of Compound β [1, 3]: <10 (cm mol/L)^−1

Cc1cc(C)c2c(C)cc(C)nc2c1 [2,4,5,7-Tetramethylquinoline]
ε365 of Compound β [1, 3]: <10 (cm mol/L)^−1

c1ccncc1 [Example B11, pyridine]
ε365 of Compound β [1, 3]: <10 (cm mol/L)^−1
